Measurements as given in patent EP4624466A1, “DEGRADER FOR DECOMPOSING CMET PROTEIN, AND PHARMACEUTICAL COMPOSITION COMPRISING SAME” (Innocure Therapeutics, Inc., priority 2022, dated 2024).
pIC50: −log10 of the molar value. Where two headings read alike, the source gives them in different places.

Experiments:
SNU-638 = assay: Cell viability / antiproliferative assay (WST-8), SNU-638; type: cell-based, human; conditions: read-out: SNU-638 IC50
Method: (§2) c-MET overexpressing human gastric cancer cell lines [MKN45] and [SNU638] were cultured in RPMI medium with 10% fetal bovine serum, penicillin (100U/ml), and streptomycin (100mg/ml), and c-MET exon 14 skipping mutant human gastric cancer cell lines [Hs746T] were cultured in DMEM media. The c-MET overexpressing human lung cancer cell line EBC-1 was cultured in MEM media with the addition of 10% fetal bovine serum, penicillin (100U/ml), and streptomycin (100mg/ml). […] The compound synthesized in accordance with the present invention was prepared with a raw material solution of 10 mM dissolved in DMSO (dimethyl sulfoxide), and was sequentially diluted and processed.
(§3) In order to observe the inhibitory activity on cell growth, cells were dispensed in a 96-well plate at a concentration of 5,000 cells/well, and then treated with the compound prepared at various concentrations for 72 hours. The viability of the cells was calculated using GraphicPad Prism 8.0 software by adding 10 ml per well of WST-8 (water soluble tetrazolium salt) sample, which reacts with dehydrogenase present in the electron transport system of mitochondria to produce formazon, incubated for 2 hours, and measured absorbance at 450 nm.

MKN-45 = assay: Cell viability / antiproliferative assay (WST-8), MKN-45; conditions: read-out: MKN-45 IC50;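 also: MKN-45 is a human gastric cancer line overexpressing c-MET, growth inhibition read as WST-8 formazan absorbance at 450 nm after 2 h dye incubation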
Method: as §2, §3

c-MET [1] = target: T1, c-MET (Homo sapiens, UniProt P08581); assay: c-MET protein degradation (Simple Western), MKN-45; type: cell-based; parameters: assess the resolution of the compound of the present invention for c-MET expressed in cells; endogenous in cells; host or cells: MKN45 (human gastric cancer); conditions: c-MET overexpressing gastric cancer cell line MKN-45, treated 24 hours
T1 sequence (P08581 25-1390): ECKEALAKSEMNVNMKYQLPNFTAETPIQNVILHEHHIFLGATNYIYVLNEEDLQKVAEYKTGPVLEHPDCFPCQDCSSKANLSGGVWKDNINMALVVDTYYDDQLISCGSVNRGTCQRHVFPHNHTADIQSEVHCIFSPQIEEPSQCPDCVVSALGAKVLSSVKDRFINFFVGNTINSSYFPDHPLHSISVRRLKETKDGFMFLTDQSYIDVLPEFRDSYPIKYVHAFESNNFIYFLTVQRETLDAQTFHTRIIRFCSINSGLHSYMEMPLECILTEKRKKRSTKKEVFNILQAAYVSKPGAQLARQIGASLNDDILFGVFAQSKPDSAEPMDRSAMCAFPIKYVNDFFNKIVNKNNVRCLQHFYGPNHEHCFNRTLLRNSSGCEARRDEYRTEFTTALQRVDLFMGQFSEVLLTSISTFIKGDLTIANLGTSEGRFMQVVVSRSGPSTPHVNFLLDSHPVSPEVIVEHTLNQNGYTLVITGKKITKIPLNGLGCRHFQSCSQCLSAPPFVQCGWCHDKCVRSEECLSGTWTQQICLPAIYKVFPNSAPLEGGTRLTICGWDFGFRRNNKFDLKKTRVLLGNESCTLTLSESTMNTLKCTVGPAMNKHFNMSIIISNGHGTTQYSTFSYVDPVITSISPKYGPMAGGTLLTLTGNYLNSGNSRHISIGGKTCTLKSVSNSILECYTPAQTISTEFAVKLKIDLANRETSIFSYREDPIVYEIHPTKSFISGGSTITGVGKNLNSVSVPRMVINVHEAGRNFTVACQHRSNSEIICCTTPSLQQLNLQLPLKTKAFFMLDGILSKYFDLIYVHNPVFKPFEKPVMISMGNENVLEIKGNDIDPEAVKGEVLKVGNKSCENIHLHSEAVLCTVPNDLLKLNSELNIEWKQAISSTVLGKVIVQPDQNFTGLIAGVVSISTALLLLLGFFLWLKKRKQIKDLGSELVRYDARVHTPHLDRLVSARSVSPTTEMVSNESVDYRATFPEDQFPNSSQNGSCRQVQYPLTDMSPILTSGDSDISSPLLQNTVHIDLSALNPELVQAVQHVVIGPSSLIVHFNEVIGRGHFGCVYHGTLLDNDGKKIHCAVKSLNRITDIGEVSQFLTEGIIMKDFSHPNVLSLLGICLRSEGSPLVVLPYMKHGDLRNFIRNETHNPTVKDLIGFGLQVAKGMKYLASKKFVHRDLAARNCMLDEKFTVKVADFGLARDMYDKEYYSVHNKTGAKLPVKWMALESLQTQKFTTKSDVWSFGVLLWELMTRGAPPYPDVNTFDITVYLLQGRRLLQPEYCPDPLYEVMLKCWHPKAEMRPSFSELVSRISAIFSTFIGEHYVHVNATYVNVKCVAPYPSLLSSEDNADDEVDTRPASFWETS
Method: (§1) In order to assess the resolution of the compound of the present invention for c-MET expressed in cells, cells were dispensed in a 12-well plate at a concentration of 2 × 10^5 cells/well, and then gastric cancer cell lines were treated with samples for 24 hours and lung cancer cell lines were treated for 48 hours. Cell lysates were collected using a scraper on ice, centrifuged at 4°C15,000 rpm for 30 min to obtain a protein-containing supernatant. Protein expression was then measured using the Simple Western Automated Western Blot System Abby instrument using 3 µg of protein for each sample. SDS and heat-induced denaturation proteins were separated by molecular weight, attached to capillary, reacted with anti-c-MET or anti-GAPDH antibodies, which are primary antibodies, and then reacted with HRP-conjugated secondary antibodies, and analyzed the protein expression signal with compass software. Protein expression was normalized based on the expression value of GAPDH, and protein development in each sample was measured as a percentage (%) based on 100% of samples treated with 0.1% DMSO carriers, and DC50 (concentration of a compound where 50% protein inhibition is achieved) was calculated from the change in protein expression amount due to compound treatment.

c-MET [2] = target: T1, c-MET; assay: c-MET protein degradation (Simple Western), SNU-638; type: cell-based; parameters: assess the resolution of the compound of the present invention for c-MET expressed in cells; endogenous in cells; host or cells: SNU638 (human gastric cancer); conditions: c-MET overexpressing gastric cancer cell line SNU-638, treated 24 hours; Table 2
Method: as §1

[3] = SNU-638 cells, 72 hours, WST-8, Table 2
[4] = MKN-45 cells, 72 hours, WST-8, Table 1

| SMILES | pIC50 (SNU-638; Homo sapiens, SNU-638, 72 h) | pIC50 (MKN-45; Homo sapiens, MKN-45, 72 h) | DC50 (c-MET [1]; Table 2) | further results |
| --- | --- | --- | --- | --- |
| Cc1nn(C2CCC(=O)NC2=O)c(=O)c2ccc(N3CCN(C4CCN(CC(=O)N5CCC(COc6cnc(-c7cccc(Cn8nc(-c9cccc(C#N)c9)ccc8=O)c7)nc6)CC5)CC4)CC3)cc12 (stereo not drawn) [ICT-0001255] | > 7.00 | > 7.00 | < 100 nM |  |
| Cc1nn(C2CCC(=O)NC2=O)c(=O)c2ccc(N3CCN(C(=O)C4CCN(CC(=O)N5CCC(COc6cnc(-c7cccc(Cn8nc(-c9cccc(C#N)c9)ccc8=O)c7)nc6)CC5)CC4)CC3)cc12 (stereo not drawn) [ICT-0001218] | > 7.00 | > 7.00 | < 100 nM | DC50 (c-MET [2]): < 100 nM |
| Cc1nn(C2CCC(=O)NC2=O)c(=O)c2cc(N3CCN(CC4CCN(CCN5CCC(COc6cnc(-c7cccc(Cn8nc(-c9cccc(C#N)c9)ccc8=O)c7)nc6)CC5)CC4)CC3)c(F)cc12 (stereo not drawn) [ICT-0001326] | 6.00 to 7.00 |  |  | DC50 (c-MET [2]): > 1000 nM |
| Cn1cc(-c2cnc3c(nnn3C[C@@H]3CN(c4ncc(-c5ccc(CN6CCN(C(=O)CCCCCNc7ccc8c(=O)n(C9CCC(=O)NC9=O)ncc8c7)CC6)cc5)cn4)CCO3)n2)cn1 (stereo partly drawn) [ICT-0000923, 3-{6-[(6-{4-[(4-{2-[(2S)-2-{[5-(1-methyl-1H-pyrazole-4-yl)-1H-[1,2,3]triazolo[4,5-b]pyrazine-1-yl]methyl}morpholine-4-day]pyrimidine-5-yl}phenyl)methyl]piperazine-1-yl}-6-oxohexyl)amino]-1-oxo-1,2-dihydrophthalazine-2-yl}piperidine-2,6-dione] | > 7.00 | > 7.00 |  | DC50 (c-MET [1]; Table 1): < 100 nM |
| N#Cc1cccc(-c2ccc(=O)n(Cc3ccc(-c4ncc(OCC5CCN(CCCC#Cc6cccc7c(=O)n(C8CCC(=O)NC8=O)ncc67)CC5)cn4)cc3)n2)c1 (stereo not drawn) [ICT-0001303] |  |  |  | pIC50 (SNU-638; [3]): > 7.00; DC50 (c-MET [2]): 100 to 1000 nM |
| Cn1cc(-c2cnc3c(nnn3C[C@@H]3CN(c4ncc(-c5ccc(CN6CCN(C(=O)CCCNc7ccc8c(=O)n(C9CCC(=O)NC9=O)ncc8c7)CC6)cc5)cn4)CCO3)n2)cn1 (stereo partly drawn) [ICT-0000922, 3-{6-[(4-{4-[(4-{2-[(2S)-2-{[5-(1-methyl-1H-pyrazole-4-yl)-1H-[1,2,3]triazolo[4,5-b]pyrazine-1-yl]methyl}morpholine-4-il]pyrimidine-5-yl}phenyl)methyl]piperazine-1-yl}-4-oxobutyl)amino]-1-oxo-1,2-dihydroptalazine-2-yl}piperidine-2,6-dione] | > 7.00 | > 7.00 |  | DC50 (c-MET [1]; Table 1): < 100 nM |
| Cc1cc2c(=O)n(C3CCC(=O)NC3=O)nc(C)c2cc1N1CCN(CC2CCN(CCN3CCC(COc4cnc(-c5cccc(Cn6nc(-c7cccc(C#N)c7)ccc6=O)c5)nc4)CC3)CC2)CC1 (stereo not drawn) [ICT-0001319] |  |  |  | pIC50 (SNU-638; [3]): > 7.00 |
| N#Cc1cccc(-c2ccc(=O)n(Cc3cccc(-c4ncc(OCC5CCN(CCCC#Cc6ccc7c(=O)n(C8CCC(=O)NC8=O)ncc7c6)CC5)cn4)c3)n2)c1 (stereo not drawn) [ICT-0001305] |  |  |  | pIC50 (SNU-638; [3]): > 7.00 |
| Cc1nn(C2CCC(=O)NC2=O)c(=O)c2ccc(N3CCN(C[C@@H]4CN(CCN5CCC(COc6cnc(-c7cccc(Cn8nc(-c9cccc(C#N)c9)ccc8=O)c7)nc6)CC5)CCO4)CC3)cc12 (stereo partly drawn) [ICT-0001315] |  |  |  | pIC50 (SNU-638; [3]): > 7.00 |
| Cn1cc(-c2cnc3c(nnn3C[C@@H]3CN(c4ncc(-c5ccc(CN6CCN(C(=O)CCCCNc7ccc8c(=O)n(C9CCC(=O)NC9=O)ncc8c7)CC6)cc5)cn4)CCO3)n2)cn1 (stereo partly drawn) [ICT-0000924, 3-(6-((5-(4-(4-(2-((S)-2-((5-(1-methyl-1H-pyrazole-4-yl)-1H-[1,2,3]triazolo[4,5-b]pyrazine-1-yl)methyl)morpholino)pyrimidine-5-yl)benzyl)piperazine-1-yl)5-oxopentyl)amino)1-oxopthalazine-2(1H)-yl)piperidine-2,6-dione] | > 7.00 | > 7.00 |  | DC50 (c-MET [1]; Table 1): < 100 nM |
| Cn1cc(-c2cnc3c(nnn3C[C@@H]3CN(c4ncc(-c5ccc(CN6CCN(C(=O)CCCCCCNc7ccc8c(=O)n(C9CCC(=O)NC9=O)ncc8c7)CC6)cc5)cn4)CCO3)n2)cn1 (stereo partly drawn) [ICT-0000925, 3-(6-((7-(4-(4-(2-((S)-2-((5-(1-methyl-1H-pyrazole-4-yl)-1H-[1,2,3]triazolo[4,5-b]pyrazine-1-yl)methyl)morpholino)pyrimidine-5-yl)benzyl)piperazine-1-yl)7-oxoheptyl)amino)1-oxopthalazine-2(1H)-yl)piperidine-2,6-dione] |  |  |  | pIC50 (SNU-638; SNU-638 cells, 72 hours, WST-8, Table 1): > 7.00; pIC50 (MKN-45; [4]): > 7.00; DC50 (c-MET [1]; Table 1): < 100 nM |
| Cc1nn(C2CCC(=O)NC2=O)c(=O)c2cc(N3CCO[C@H](CN4CCN(CC(=O)N5CCC(COc6cnc(-c7cccc(Cn8nc(-c9cccc(C#N)c9)ccc8=O)c7)nc6)CC5)CC4)C3)ccc12 (stereo partly drawn) [ICT-0001271, 3-(1-(3-(5-((1-(2-(4-(((2R)-4-(3-(2,6-dioxopiperidin-3-yl)-1-methyl-4-oxo-3,4-dihydrophthalazine-6-yl)morpholine-2-il)methyl)piperazine-1-il)acetyl)piperidine-4-il)methoxy)pyrimidine-2-yl)benzyl)6-oxo-1,6-dihydropyridazine-3-yl)benzonitrile] |  |  | < 100 nM | pIC50 (MKN-45; MKN-45 cells, 72 hours, WST-8, Table 2): > 7.00 |
| Cc1nn(C2CCC(=O)NC2=O)c(=O)c2cc(N3CCC(N4CCN(C(=O)CN5CCC(COc6cnc(-c7cccc(Cn8nc(-c9cccc(C#N)c9)ccc8=O)c7)nc6)CC5)CC4)CC3)ccc12 (stereo not drawn) [ICT-0001233, 3-(1-(3-(5-((1-(2-(4-(1-(3-(2,6-dioxopiperidine-3-yl)-1-methyl-4-oxo-3,4-dihydropthalazine-6-yl)piperidine-4-yl)piperazine-1-yl)2-oxoethyl)piperidine-4-il)methoxy)pyrimidine-2-yl)benzyl)6-oxo-1,6-dihydropyridine-3-yl)benzonitrile] |  | > 7.00 | < 100 nM |  |
| N#Cc1cccc(-c2ccc(=O)n(Cc3cccc(-c4ncc(OCC5CCN(CCCCC(=O)N6CCN(c7ccc8c(=O)n(C9CCC(=O)NC9=O)ncc8c7)CC6)CC5)cn4)c3)n2)c1 (stereo not drawn) [ICT-0001252] |  | > 7.00 | < 100 nM |  |
| Cc1nn(C2CCC(=O)NC2=O)c(=O)c2ccc(N3CCN(CC4CN(CC(=O)N5CCC(COc6cnc(-c7cccc(Cn8nc(-c9cccc(C#N)c9)ccc8=O)c7)nc6)CC5)C4)CC3)cc12 (stereo not drawn) [ICT-0001253] |  | > 7.00 | < 100 nM |  |
| Cn1cc(-c2cnc3c(nnn3C[C@@H]3CN(c4ncc(-c5ccc(CN6CCN(C(=O)CCCCNc7cccc8cnn(C9CCC(=O)NC9=O)c(=O)c78)CC6)cc5)cn4)CCO3)n2)cn1 (stereo partly drawn) [ICT-0000959, 3-{8-[(5-{4-[(4-{2-[(2S)-2-{[5-(1-methyl-1H-pyrazole-4-yl)-1H-[1,2,3]triazolo[4,5-b]pyrazine-1-yl]methyl}morpholine-4-il]pyrimidine-5-yl}phenyl)methyl]piperazine-1-yl}-5-oxopentyl)amino]-1-oxo-1,2-dihydropthalazine-2-yl}piperidine-2,6-dione] |  |  |  | pIC50 (MKN-45; [4]): > 7.00; DC50 (c-MET [1]; Table 1): < 100 nM |
| Cc1nn(C2CCC(=O)NC2=O)c(=O)c2cc(N3CCC(N4CCN(CC(=O)N5CCC(COc6cnc(-c7cccc(Cn8nc(-c9cccc(C#N)c9)ccc8=O)c7)nc6)CC5)CC4)CC3)ccc12 (stereo not drawn) [ICT-0001270] |  | > 7.00 | < 100 nM |  |
| Cc1nn(C2CCC(=O)NC2=O)c(=O)c2ccc(NCCOCCOCC(=O)N3CCC(COc4cnc(-c5cccc(Cn6nc(-c7cccc(C#N)c7)ccc6=O)c5)nc4)CC3)cc12 (stereo not drawn) [ICT-0001087] |  | > 7.00 | < 100 nM |  |
| Cc1nn(C2CCC(=O)NC2=O)c(=O)c2ccc(N3CCN(C4CN(CCN5CCC(COc6cnc(-c7cccc(Cn8nc(-c9cccc(C#N)c9)ccc8=O)c7)nc6)CC5)C4)CC3)cc12 (stereo not drawn) [ICT-0001325] | > 7.00 |  |  | DC50 (c-MET [2]): > 1000 nM |
| N#Cc1cccc(-c2ccc(=O)n(Cc3cccc(-c4ncc(OCC5CCN(C(=O)COCCOCCNc6ccc7c(=O)n(C8CCC(=O)NC8=O)ncc7c6)CC5)cn4)c3)n2)c1 (stereo not drawn) [ICT-0000986] |  | > 7.00 | < 100 nM |  |
| Cn1cc(-c2cnc3c(nnn3C[C@@H]3CN(c4ncc(-c5ccc(CN6CCN(C(=O)CCCCCCNc7cccc8cnn(C9CCC(=O)NC9=O)c(=O)c78)CC6)cc5)cn4)CCO3)n2)cn1 (stereo partly drawn) [ICT-0000960, 3-{8-[(7-{4-[(4-{2-[(2S)-2-{[5-(1-methyl-1H-pyrazole-4-yl)-1H-[1,2,3]triazolo[4,5-b]pyrazine-1-yl]methyl}morpholine-4-yl]pyrimidine-5-yl}phenyl)methyl]piperazine-1-yl}-7-oxoheptyl)amino]-1-oxo-1,2-dihydrophthalazine-2-yl}piperidine-2,6-dione] |  | > 7.00 |  | DC50 (c-MET [1]; Table 1): 100 to 1000 nM |
| Cc1nn(C2CCC(=O)NC2=O)c(=O)c2ccc(N3CCN(C[C@@H]4CN(C(=O)CN5CCC(COc6cnc(-c7cccc(Cn8nc(-c9cccc(C#N)c9)ccc8=O)c7)nc6)CC5)CCO4)CC3)cc12 (stereo partly drawn) [ICT-0001258] |  | > 7.00 | < 100 nM |  |
